This is an account of results in patent publication US9493451B2 (Bionomics Limited, priority 2011, dated 2016).

Where only a bound is given, the exact number is not on record here.

For this assay, the target named is T1, Kv1.3 (Homo sapiens, UniProt P22001).
T1 construct: expressed in transfected cells; host or cells: CHO (Kv1.3/CHO)
The assay is described as follows: Electrophysiology: planar patch-clamp of Kv1.3 currents, IC50 from steady state current amplitude. The assay is classed as cell-based. The settings on record: Kv1.3 electrophysiology, results according to Method D1, read-out: IC50 (Kv1.3 ephys steady state). The protocol:
The inhibition data shown for the compounds of the list below was calculated using the steady state current amplitude at the end of the depolarising pulse in patch clamp evaluations (as described in the Biology Protocols: 1. Electrophysiology).
Kv1.x currents were measured in Kv1.3/CHO or Kv1.5/CHO cells using a planar electrode version (Nanion Technologies GMBH) of the patch-clamp technique. Whole-cell Kv1.x current transients were evoked by 500 ms depolarising voltage pulses to +40 mV from a holding potential of −80 mV applied at 10 s intervals for Kv1.5 and at 30 s intervals for Kv1.3 to allow adequate time for recovery from inactivation. Cells were continuously bathed in a buffered saline solution containing (mM): 160 NaCl, 4.5 KCl, 2 CaCl2, 1 MgCl2, 5 glucose, 10 HEPES, pH 7.4, 290-310 mOsm·Kg^−1. The internal (pipette) solution contained (mM): 10 NaCl, 70 KF, 75 KCl, 2 MgCl2, 10 HEPES, 10 EGTA, pH 7.2, 290-310 mOsm·Kg^−1. Series resistance compensation (60-80%) was applied to cells in which the peak current amplitude exceeded 2 nA.
Compound Preparation and Potency Assessment
Compounds were initially dissolved in DMSO to 10 mM. After further dilution in DMSO, compounds were finally diluted in bath solution 1/200 (to give a final DMSO concentration of 0.5%) and applied directly to the recording chamber. Compounds were added at increasing concentrations allowing ample time for steady state block to be achieved between each concentration. Each compound was tested at 5-6 different concentrations on 2-3 cells. Compound IC50 values were determined by fitting the average normalised reduction of either the current integral or the steady state current amplitude at the end of the 500 ms depolarising pulse obtained at each compound concentration to the Hill equation. The IC50 data reported herein is based on the steady state calculation.

T1 sequence (P22001 whole entry): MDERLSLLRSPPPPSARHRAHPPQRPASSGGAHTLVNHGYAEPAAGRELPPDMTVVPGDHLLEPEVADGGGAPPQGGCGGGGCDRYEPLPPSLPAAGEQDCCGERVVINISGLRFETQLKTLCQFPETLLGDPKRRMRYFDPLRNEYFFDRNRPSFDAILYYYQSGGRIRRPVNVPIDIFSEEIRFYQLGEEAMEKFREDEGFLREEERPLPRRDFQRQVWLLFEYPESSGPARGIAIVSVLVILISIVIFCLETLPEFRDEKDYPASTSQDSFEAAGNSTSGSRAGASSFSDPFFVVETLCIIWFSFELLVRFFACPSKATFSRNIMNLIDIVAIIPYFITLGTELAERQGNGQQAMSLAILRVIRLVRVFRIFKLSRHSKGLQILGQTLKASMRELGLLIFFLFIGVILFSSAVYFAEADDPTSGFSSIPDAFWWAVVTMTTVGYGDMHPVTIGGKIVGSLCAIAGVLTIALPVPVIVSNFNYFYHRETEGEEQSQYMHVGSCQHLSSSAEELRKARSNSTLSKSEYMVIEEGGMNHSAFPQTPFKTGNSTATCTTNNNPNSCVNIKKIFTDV

For `O=C(CS(=O)(=O)c1ccc(F)cc1)N(Cc1ccc(C(F)(F)F)nc1)C(c1ccc(OC(F)F)cc1)C1CC1` (centres unmarked) [Example 313], the concentration for half-maximal inhibition (IC50) is 50 to 200 nM.

On to `O=C(CS(=O)(=O)c1ccc(F)cc1)N(C1CCNCC1)C(c1ccc(OC(F)F)cc1)C1CC1` (centres unmarked) [Example 298], for which the IC50 lay in the range of 200 to 1000 nM.

Consider `CN1C2CCC1CC(N(C(=O)CS(=O)(=O)c1ccc(F)cc1)C(c1ccc(Cl)cc1)C1CC1)C2` (centres unmarked) [Example 80, N-[(4-chlorophenyl)(cyclopropyl)methyl]-2-[(4-fluorophenyl)sulfonyl]-N-(8-methyl-8-azabicyclo[3.2.1]octan-3-yl)acetamide], for which the IC50 was in the range of 200 to 1000 nM.

For the molecule `CCS(=O)(=O)c1ccc(C(C2CC2)N(Cc2ccc(F)cn2)C(=O)CC(C)c2ccccc2C(F)(F)F)cc1` (centres unmarked) [Example 269], the IC50 lay within 50 to 200 nM.

Take `O=C(C1CC1c1ccc(F)cc1)N(Cc1ccc(F)cn1)C(c1ccc(OC(F)F)cc1)C1CNC1` (centres unmarked) [Example 153]: the IC50 lay in the range of 1000 to 2000 nM.

With `O=C([C@@H]1C[C@H]1c1ccc(F)cc1)N(Cc1cccnn1)[C@@H](c1ccc(OC(F)F)cc1)C1CC1` [Example 97, (1R,2R)-2-(4-Fluoro-phenyl)-cyclopropanecarboxylic acid [(R)-cyclopropyl-(4-difluoromethoxy-phenyl)-methyl]-pyridazin-3-ylmethyl-amide], the IC50 is less than 50 nM.

For `O=C(CS(=O)(=O)c1cccc(C(F)(F)F)c1)N(Cc1cccnn1)C(c1ccc(OC(F)F)cc1)C1CC1` (centres unmarked) [Example 307], the IC50 lay within 50 to 200 nM.

Regarding `CCc1noc(C(C)N(Cc2ccccn2)C(=O)CC(C)c2ccc(F)cc2)n1` (centres unmarked) [Example 87], the half-inhibitory concentration (IC50) was 200 to 1000 nM.

As to `CC(C(=O)N(Cc1ccccn1)C(c1ccc(Cl)cc1)C1CC1)S(=O)(=O)c1ccc(F)cc1` (single isomer, unassigned) [Example 297], the IC50 fell in the range of 200 to 1000 nM.

Take `O=C(C1C[C@H]1c1ccc(F)cc1)N(Cc1ccccn1)[C@@H](c1ccc(Cl)cc1)C1CC1` (stereo in doubt) [Example 13, N-[(4-chlorophenyl)(cyclopropyl)methyl]-2-(4-fluorophenyl)-N-(pyridin-2-ylmethyl)cyclopropanecarboxamide]: the half-maximal inhibitory concentration (IC50) fell in the range of 50 to 200 nM.

On to `N#Cc1cccc(C(C2CC2)N(Cc2ncccc2F)C(=O)C2CC2c2ccc(F)cc2)c1` (centres unmarked) [Example 251], for which the 50% inhibitory concentration (IC50) lay in the range of 200 to 1000 nM.

Turning to `O=C(N(Cc1ccccn1)[C@H](c1ccc(OC(F)F)cc1)C1CC1)C1(S(=O)(=O)c2ccc(F)cc2)CC1` [Example 92, N-{cyclopropyl[4-(difluoromethoxy)phenyl]methyl}-1-[(4-fluorophenyl)sulfonyl]-N-(pyridin-2-ylmethyl)cyclopropanecarboxamide], the IC50 lay in the range of 200 to 1000 nM.

Take `O=C(CS(=O)(=O)c1ccccc1)N(Cc1cccnn1)C(c1ccc(OC(F)F)cc1)C1CC1` (centres unmarked) [Example 306]: the IC50 was in the range of 200 to 1000 nM.

Take `CCS(=O)(=O)c1cccc(C(C2CC2)N(Cc2ncccc2F)C(=O)C2CC2c2ccc(F)cc2)c1` (centres unmarked) [Example 218]: the IC50 lay within 50 to 200 nM.

For `COc1ccccc1[C@@H](C)N(Cc1ccccn1)C(=O)CCc1cccc(C(F)(F)F)c1` [Example 61, N-[(1R)-1-(2-methoxyphenyl)ethyl]-N-(pyridin-2-ylmethyl)-3-[3-(trifluoromethyl)phenyl]propanamide], the 50% inhibitory concentration (IC50) is 50 to 200 nM.

In the case of `CC(C)(C(=O)N(Cc1ccccn1)C(c1ccc(OC(F)F)cc1)C1CC1)S(=O)(=O)c1ccc(F)cc1` (centres unmarked) [Example 318], the IC50 is 50 to 200 nM.

On to `CCS(=O)(=O)c1cccc(C(C2CC2)N(Cc2ccccn2)C(=O)C(C)(C)S(=O)(=O)c2ccccc2)c1` (centres unmarked) [Example 328], for which the IC50 was in the range of 200 to 1000 nM.

In the case of `CCS(=O)(=O)c1cccc(C(C2CC2)N(Cc2ccc(F)cn2)C(=O)C2CC2c2ccc(OC(F)F)cc2)c1` (centres unmarked) [Example 222], the IC50 was 50 to 200 nM.

Take `CCC(c1ccc(S(C)(=O)=O)cc1)N(Cc1cccnn1)C(=O)C1CC1c1ccc(F)cc1` (centres unmarked) [Example 124]: the IC50 lay within 200 to 1000 nM.

Take `CN1CC(C(c2ccc(OC(F)F)cc2)N(Cc2ccc(C(F)(F)F)cn2)C(=O)C2CC2c2ccc(F)cc2)C1` (centres unmarked) [Example 160]: the concentration for half-maximal inhibition (IC50) lay in the range of 200 to 1000 nM.

For the molecule `CC(CC(=O)N(Cc1cccnn1)C(c1ccc(OC(F)F)cc1)C1CC1)c1ccccc1C(F)(F)F` (centres unmarked) [Example 260], the IC50 was 50 to 200 nM.

Take `CCS(=O)(=O)c1cccc(C(C2CC2)N(Cc2ccccn2)C(=O)C2CC2c2cccc(C(F)(F)F)c2)c1` (centres unmarked) [Example 217]: the IC50 was in the range of 50 to 200 nM.

`CC(C)S(=O)(=O)c1ccc(C(C2CC2)N(Cc2ncccc2F)C(=O)C2CC2c2ccc(F)cc2)cc1` (centres unmarked) [Example 234]: the IC50 was 200 to 1000 nM.

Consider `O=C(C1CC1c1ccc(F)cc1)N(Cc1ccc(F)cn1)C(c1ccc(F)cc1)C1CNC1` (centres unmarked) [Example 158], for which the IC50 fell in the range of 200 to 1000 nM.

For the molecule `O=C(C1CC1c1ccc(F)cc1)N(Cc1ncccc1F)C(c1ccc(F)cc1)C1CCOC1` (centres unmarked) [Example 172], the IC50 fell in the range of 50 to 200 nM.

In the case of `Cc1cccc(CN(C(=O)CS(=O)(=O)c2ccc(F)cc2)C(c2ccccc2OC(F)(F)F)C2CC2)n1` (centres unmarked) [Example 331], the IC50 was in the range of 50 to 200 nM.

Consider `CN1CC(C(c2ccc(OC(F)F)cc2)N(Cc2ccc(C(F)(F)F)cn2)C(=O)C2CC2c2ccc(F)cc2)C1` (centres unmarked) [Example 161], for which the half-maximal inhibitory concentration (IC50) lay within 200 to 1000 nM.

Take `CC(C)(c1ccccc1)N(Cc1ccccn1)C(=O)CS(=O)(=O)c1ccc(F)cc1` [Example 101, 2-(4-Fluorophenylsulfonyl)-N-(2-phenylpropan-2-yl)-N-(pyridine-2-ylmethyl)acetamide]: the IC50 was 200 to 1000 nM.

With `O=C(C1CC1c1ccc(F)cc1)N(Cc1ccc(F)cn1)C(c1ccc(F)cc1)C1CCOC1` (centres unmarked) [Example 176], the half-maximal inhibitory concentration (IC50) was 50 to 200 nM.

Take `O=C(C1CC1c1ccc(F)cc1)N(CCN1CCCC(F)(F)C1)C(c1ccc(OC(F)F)cc1)C1CC1` (centres unmarked) [Example 186]: the IC50 was 200 to 1000 nM.

`CCC(c1ccc(S(C)(=O)=O)cc1)N(Cc1ccc(C(F)(F)F)nc1)C(=O)C1CC1c1ccc(F)cc1` (centres unmarked) [Example 121]: the IC50 lay within 50 to 200 nM.

As to `CC(C)S(=O)(=O)c1cccc(C(C2CC2)N(Cc2cncc(F)c2)C(=O)C2CC2c2ccc(F)cc2)c1` (centres unmarked) [Example 244], the IC50 lay in the range of 200 to 1000 nM.

Turning to `CC(CC(=O)N(Cc1ccc(F)cn1)C(c1ccc(F)cc1)C1CCCO1)c1ccc(F)cc1` (centres unmarked) [Example 270], the 50% inhibitory concentration (IC50) was in the range of 50 to 200 nM.

For `CC(C)C(c1ccc(OC(F)F)cc1)N(Cc1cccnn1)C(=O)C1CC1c1ccc(F)cc1` (centres unmarked) [Example 113], the IC50 fell in the range of 200 to 1000 nM.

Turning to `C[C@@H](CC(=O)N(Cc1ccccn1)C1(c2cccc(Br)c2)CC1)c1ccc(F)cc1` (single isomer, unassigned) [Example 96], the half-maximal inhibitory concentration (IC50) lay within 50 to 200 nM.

Consider `O=C(CS(=O)(=O)c1ccc(F)cc1)N(C1CCOCC1)C(c1ccc(OC(F)F)cc1)C1CC1` (centres unmarked) [Example 317], for which the concentration for half-maximal inhibition (IC50) was 200 to 1000 nM.

In the case of `CCS(=O)(=O)c1cccc(C(C2CC2)N(Cc2ccc(F)cn2)C(=O)CC(C)c2ccccc2C(F)(F)F)c1` (centres unmarked) [Example 265], the IC50 is 50 to 200 nM.

As for `CC(c1ccc(Cl)cc1)N(C(=O)CS(=O)(=O)c1ccc(F)cc1)C1CC2CCC(C1)N2C` (centres unmarked) [Example 280], the 50% inhibitory concentration (IC50) was in the range of 200 to 1000 nM.

In the case of `O=C(CS(=O)(=O)c1ccccc1)N(Cc1ccc(C(F)(F)F)nc1)C(c1ccc(OC(F)F)cc1)C1CC1` (centres unmarked) [Example 302], the IC50 was 50 to 200 nM.

Take `Cn1ccnc1CN(C(=O)C1CC1c1ccc(F)cc1)C(c1ccc(OC(F)F)cc1)C1CC1` (centres unmarked) [Example 187]: the IC50 is 200 to 1000 nM.

For `Cc1cccc(CN(C(=O)CS(=O)(=O)c2ccc(F)cc2)C(c2ccc(OC(F)F)cc2)C2CC2)n1` (centres unmarked) [Example 320], the IC50 is less than 50 nM.

With `CC(C)C(c1ccc(OC(F)F)cc1)N(Cc1cccnn1)C(=O)C1CC1c1ccc(F)cc1` (centres unmarked) [Example 114], the IC50 lay within 50 to 200 nM.

For `CCS(=O)(=O)c1cccc(C(C2CC2)N(C(=O)C2CC2c2ccccc2OC(F)(F)F)C2CCOCC2)c1` (centres unmarked) [Example 220], the concentration for half-maximal inhibition (IC50) fell in the range of 50 to 200 nM.

For `CN1CC(C(c2ccc(F)cc2)N(Cc2ncccc2F)C(=O)C2CC2c2ccc(F)cc2)C1` (centres unmarked) [Example 156], the half-inhibitory concentration (IC50) lay in the range of 50 to 200 nM.

In the case of `CC(C)(C(=O)N(Cc1ccccn1)C(c1ccc(OC(F)F)cc1)C1CC1)S(=O)(=O)c1ccc(F)cc1` (centres unmarked) [Example 319], the IC50 fell in the range of 50 to 200 nM.

Consider `O=C(CS(=O)(=O)c1ccc(F)cc1)N(C1CCC(F)(F)CC1)C(c1ccc(OC(F)F)cc1)C1CC1` (centres unmarked) [Example 316], for which the half-inhibitory concentration (IC50) lay in the range of 200 to 1000 nM.

Turning to `O=C(C1CC1c1ccc(F)cc1)N(Cc1ccc(F)cn1)C(c1ccc(OC(F)F)cc1)C1CNC1` (centres unmarked) [Example 152], the half-inhibitory concentration (IC50) is 200 to 1000 nM.

Take `CC(CC(=O)N(Cc1ccc(F)cn1)C(c1ccc(S(=O)(=O)C(C)C)cc1)C1CC1)c1ccc(F)cc1` (centres unmarked) [Example 264]: the 50% inhibitory concentration (IC50) is less than 50 nM.

For the molecule `N#Cc1cccc(C(C2CC2)N(Cc2ccc(C(F)(F)F)nc2)C(=O)CS(=O)(=O)c2ccc(F)cc2)c1` (centres unmarked) [Example 333], the IC50 lay within 200 to 1000 nM.

With `O=C(C1CC1c1ccc(F)cc1)N(Cc1cnc[nH]1)C(c1ccc(OC(F)F)cc1)C1CC1` (centres unmarked) [Example 183], the IC50 was 200 to 1000 nM.
